In data set [1] the test system is ErbB3-transfected Hep3B cells (group K2). Put plainly: cell numbers by light and fluorescence microscopy (FIG. 11b-d). Type of data set: cell-based. Conditions: 120 hours. The text has this:
That is, pDSRed vector is used as a control (group K1) and the ErbB3 protein-expressing plasmid constructed with primers with sequences set forth in SEQ ID NOs. 11 and 12 is used as the group K2.
Cell numbers of the vector- or ErbB3-transfected Hep3B cells are monitored using a fluorescence microscope with an excitation wavelength of 535 nm. […] The cell number of the lapatinib-treated vector-transfected Hep3B cells divides by the cell number of the DMSO-treated vector-transfected Hep3B cells and the cell number of the lapatinib-treated ErbB3-transfected Hep3B cells divides by the cell number of the DMSO-treated ErbB3-transfected Hep3B cells. As a result, after lapatinib treatment for 120 hours, the quantitative cell viability of ErbB3-transfected Hep3B cells is merely smaller than 20%. That is, ErbB3 transfection induces […] of Hep3B cells to lapatinib.

Data set [2] has as its system Hep3B cells. Kind of data set: MTT cytotoxicity assay. Type of data set: cell-based. Conditions: 72 hours, 0-10 μM. On the procedure:
(§1) In the following trials, liver cancer cells including Hep3B, Hep3Bx, HepG2 and HepG2x cells are used. The Hep3Bx and HepG2x cells, derived from the Hep3B and HepG2 cells, respectively, are cell lines constitutively expressing HBx. All of the liver cancer cells are incubated in a 37° C. incubator. DME/F12 with 10% FBS is used as media for incubating the cell lines. Moreover, lapatinib is dissolved in DMSO with different concentration.
(§2) Cytotoxicity of lapatinib to the Hep3B and Hep3Bx cells is monitored using the MTT 3-(4,5-dimethylthiazol-2-yl)-2,5-diphenyltetrazolium bromide assay. First, the Hep3B and Hep3Bx cells are inoculated in a 96-well pate with 5,000-10,000 cells per well. After incubating at 37° C. for 24 hours, 0, 0.1, 0.5, 1, 5 and 10 μM of lapatinib is added into the medium for further incubation at 37° C. for 72 hours, respectively. 0.025 mL of MTT solution ([…] of MTT dissolved in 1 mL of 1×PBS) is added into 0.1 mL of the medium, followed by incubating at 37° C. for 4 hours. Succinate dehydrogenase, bound to the inner mitochondrial membrane of the living cells, is capable of reducing MTT to its insoluble formazan, which has a purple color. Therefore, after removing the supernatants, 0.1 mL of DMSO is added to dissolve the insoluble formazan into a colored solution.
(Tetrazolium dyes change colour on reduction, which living cells bring about.)

Data set [3] has as its system Hep3Bx cells. Kind of data set: MTT cytotoxicity assay. It counts as cell-based. Conditions: 72 hours, 0-10 μM. The procedure: as §1, §2
Data set [4] relates to HBx-virus transduced Hep3B cells (group E2). Kind of data set: cell viability after lapatinib treatment (FIG. 5b). It counts as cell-based. From the text: (§3) In the trial (D) and (E), HBx is introduced into the Hep3B cells via transient transfection and virus transduction, respectively. Cytotoxicity of lapatinib to the HBx-transfected or HBx-virus transduced Hep3B cells is further monitored by the crystal violet assay.
(§4) That is, pDEST-V5 vector is used as a control (group E1) and the HBx plasmid expressing HBx expression protein constructed with primers with sequences set forth in SEQ ID NOs. 7 and 8 is used as the group E2.
(§5) The plasmids are virus transduced into the Hep3B cells as the following procedure: the Hep3B cells are inoculated in 3.5-cm petri dishes with concentration of 2×10^5 cells per petri dish. After incubating for 24 hours, virus with 100 MOI is used to transduce the plasmids into the cultured Hep3B cells. Fresh media are replaced after 16 hours and the following experiments are performed 4 days later.

Data set [5] has as its system vector-virus transduced Hep3B cells (group E1). Put plainly: cell viability after lapatinib treatment (FIG. 5b). It counts as cell-based.
From the text: as §3, §4, §5

For data set [6], the system named is myc-HBx-transfected Hep3B cells (group D2). Put plainly: crystal violet staining (FIG. 4c). Type of data set: cell-based. The settings on record: 1 μM, 120 hours. On the procedure:
(§6) The plasmids are transfected into the Hep3B cells as the following procedure: 1 μg of the plasmids are mixed with 1 μL of TransIT2020 transfection reagent, and the mixture is incubated with the fresh medium without FBS at room temperature for 30 minutes to obtain the vector-transfected Hep3B cells (group D1) and the myc-HBx-transfected Hep3B cells (group D2).
Moreover, 1×10^5 cells of the vector-transfected Hep3B cells (group D1) and the myc-HBx-transfected Hep3B cells (group D2) are further treated with 1 μM of lapatinib. Also, DMSO is used to treat the vector-transfected Hep3B cells (group D1) and the myc-HBx-transfected Hep3B cells (group D2) as a solvent control. After culturing at 37° C. for 120 hours, the supernatants are removed and 10 mg/mL of crystal violet solution dissolving in 30% ethanol is added to the cultured Hep3B cells for 15 to 30 minutes. Crystal violet solution can stain the nuclei of the living cells adhering to the petri dishes.

For data set [7] the test system is unchanged. Kind of data set: cell viability after lapatinib treatment (FIG. 4b). Type of data set: cell-based.
From the text: as §3
That is, pcDNA6/myc-His A vector is used as a control (group D1) and the C-terminal myc-tagged HBx plasmid expressing myc-HBx expression protein constructed with primers with sequences set forth in SEQ ID NOs. 5 and 6 is used as the group D2.
as §6

Data set [8] concerns vector-transfected Hep3B cells (group D1). Put plainly: crystal violet staining (FIG. 4c). It counts as cell-based. Conditions: 1 μM, 120 hours.
The test system of data set [9] is Hep3B cells. Put plainly: sub-G1 phase arrest by PI flow cytometry. Type of data set: cell-based. The settings on record: 120 hours, different concentrations. The procedure: (§7) The Hep3B and Hep3Bx cells are inoculated in 3.5-cm petri dishes, respectively. After the Hep3B and Hep3Bx cells cover 50 to 60% of the 3.5-cm petri dishes, 3 mL of fresh medium with different concentrations of lapatinib is added, followed by incubation at 37° C. for 120 hours. The cultured Hep3B and Hep3Bx cells are resuspended in 3 mL of 75% ethanol in a concentration of 1.5×10^5 cells per mL and fixed at −20° C. for at least 2 hours. Finally, the fixed Hep3B and Hep3Bx cells are mixed with 0.5 mL of PI buffer at 37° C. for 30 minutes. The sub-G1 phase arresting cells with a DNA content less than 2n, which are usually the result of apoptotic DNA fragmentation are detected and measured by a sub-G1 peak in the fluorescence histogram of flow cytometry.
(In general: Flow cytometry measures light scatter and fluorescence of single cells or particles in a stream.)

The subject of data set [10] is Hep3Bx cells. Put plainly: sub-G1 phase arrest by PI flow cytometry. Type of data set: cell-based. Conditions: 120 hours, different concentrations. On the procedure:
as §7

The subject of data set [11] is vector-transfected Hep3B cells (group F1). Put plainly: crystal violet assay (FIG. 6c). The settings on record: 1 μM, 120 hours. The text has this:
(§8) The genome of HBV contains 4 known genes including genes C, X, P and S. To define the role of HBx in cytotoxicity of lapatinib to liver cancer, the plasmids being thankful presents from Dr. Seishi Murakami (J. Virology, 79 (9): 5548-5556, 2005) are used to transiently transfect into the Hep3B cells in the trial (F). […] The plasmid containing an ochre termination signal (CAA to UAA) after codon 7 (at codon 8) in the HBx ORF is used as the group F3. The plasmids are transiently transfected into the Hep3B and HepG2 cells as described above.
(§9) The transfected Hep3B and HepG2 cells are treated with DMSO or 1 μM of lapatinib for 120 hours and the DMSO- or lapatinib-treated cells are analyzed by crystal violet assay.

In data set [12] the test system is wild-type HBV genome-transfected Hep3B cells (group F2). Put plainly: crystal violet assay (FIG. 6c). Conditions: 1 μM, 120 hours.
From the text: as §8, §9

Data set [13] has as its system vector-transfected HepG2 cells (group F1). Kind of data set: crystal violet assay (FIG. 6c). The settings on record: 1 μM, 120 hours.
From the text: as §8, §9

Data set [14] has as its system wild-type HBV genome-transfected HepG2 cells (group F2). Put plainly: crystal violet assay (FIG. 6c). Conditions: 1 μM, 120 hours.
From the text: as §8, §9

In data set [15] the test system is HBx-minus mutant-transfected Hep3B cells (group F3). Kind of data set: crystal violet assay (FIG. 6c). Conditions: 1 μM, 120 hours.
From the text: as §8, §9

For data set [16], the system named is HBx-minus mutant-transfected HepG2 cells (group F3). Put plainly: crystal violet assay (FIG. 6c). Conditions: 1 μM, 120 hours.
From the text: as §8, §9

For data set [17], the system named is Hep3B cells. Kind of data set: Western blotting of cleaved PARP and cleaved Caspase-3. Type of data set: cell-based. The procedure:
(§10) Western blotting is performed with anti-PARP antibody (1: 1,000, purchased from Cell Signaling) and anti-Caspase-3 antibody (1: 1,000, purchased from Cell Signaling). The anti-Actin antibody (1: 10,000, purchased from Sigma) is used as an internal control.

The subject of data set [18] is Hep3Bx cells. The data set is described as above. It counts as cell-based. The settings on record: higher concentration. On the procedure: as §10
Data set [19] deals with ErbB3-specific siRNA-treated Hep3Bx cells. Put plainly: crystal violet staining (FIG. 12b). It counts as cell-based. Conditions: ErbB3-specific siRNA-treated Hep3Bx cells compared to control siRNA-treated, 120 hours. The procedure:
(§11) 5 μL of 20 μM siRNA is mixed with 1 μL of the transfection reagent and 100 μL of the medium without FBS. 30 minutes later, the siRNA-containing mixture is added into the medium-discarded Hep3Bx cells with a final volume of 1 mL. After incubating for 5 hours, the FBS containing medium as added to a final volume of 2 mL. The following experiment is performed 4-day posttransfection.
(§12) ErbB3-specific siRNA with a sequence as set forth in SEQ ID NO: 13 is used to silence expression of ErbB3 in the Hep3Bx cells. The control siRNA with a sequence as set forth in SEQ ID NO: 10 is used as a control.

Data set [20] has as its system liver cancers. Conditions: clinical trial; cited from earlier work.
Data set [21] deals with vector-transfected Hep3B cells (group D1). Put plainly: cell viability after lapatinib treatment (FIG. 4b). Type of data set: cell-based.
Data set [22] deals with ErbB3 in Hep3Bx cells. Kind of data set: siRNA silencing of ErbB3 (FIG. 12a). Type of data set: cell-based. The procedure: as §11, §12
Data set [23] deals with HBx in Hep3Bx cells. Kind of data set: siRNA silencing of HBx, Western blotting (FIG. 9e). It counts as cell-based. The settings on record: 4-day posttransfection. The procedure: HBx-specific siRNA with a sequence as set forth in SEQ ID NO: 9 and a control siRNA with a sequence as set forth in SEQ ID NO: 10 are used to further confirm the relationship between HBx and ErbB3 in the Hep3Bx cells.
as §11
On the technique in general: Immunoblotting shows a protein as a band on a membrane.

Consider 3 molecules from patent US9790563B2, “Method for treating liver cancer” (priority 2014, dated 2017).

`CS(=O)(=O)CCNCc1ccc(-c2ccc3ncnc(Nc4ccc(OCc5cccc(F)c5)c(Cl)c4)c3c2)o1` [lapatinib]: in data set [1] (ErbB3-transfected Hep3B cells (group K2), in comparison to vector-transfected cells), the “cell numbers (light microscopy)” value is “reduction of cell numbers”. In addition, in data set [1] (ErbB3-transfected Hep3B cells, lapatinib-treated cell number divided by DMSO-treated cell number, fluorescence microscope), the quantitative cell viability result was “smaller than 20%”. Further, the “lapatinib concentration at which cells show intolerance” value is reported as “more than 5 μM” in data set [2] and “more than 0.1 μM” in data set [3]. Also, the cells survival entry in [4] is “about 60%”. The cytotoxicity entry in data set [4] is given as “significant cytotoxicity”; in [5] it was “no cytotoxicity”. Further, the results for the “cytotoxicity (crystal violet staining)” value in data set [6] and in [8] were “significant cytotoxicity” and “slight cytotoxicity”, respectively. Moreover, the “concentration at which lapatinib shows cytotoxicity” value in data set [7] is 1000 nM; in data set [21], 5000 nM. Further, the sub-G1 phase arrest entry is listed as “does not trigger sub-G1 phase arrest” in data set [9] and “the higher the treating concentration is, the more sub-G1 phase arresting cells are observed” in data set [10]. Moreover, the “cytotoxicity (crystal violet assay)” value in data set [11] is on record as “no cytotoxicity”; in data set [12] it was “obvious cytotoxicity”; in data set [13], “slight cytotoxicity”; in data set [14], “significant cytotoxicity”; in [15] it was “no cytotoxicity”; in data set [16], “slight cytotoxicity”. The “level of cleaved PARP and cleaved Caspase-3” value in data set [17] is “does not increase the level of cleaved PARP and cleaved Caspase-3”; in data set [18], “higher level of cleaved PARP and cleaved Caspase-3”. Besides, in data set [19], the “tolerance to lapatinib (crystal violet staining)” value was “intolerance to lapatinib”. In addition, the “effectiveness in patients with liver cancers” value in data set [20] is on record as “effective for only part of patients with liver cancers”.
With “ErbB3-specific siRNA: ErbB3-specific siRNA with a sequence as set forth in SEQ ID NO: 13 (GCGATGCTGAGAACCAATA; listed as DNA, chemistry not given here)”, in data set [22], the “mRNA level of ErbB3” value is recorded as “decreases mRNA level of ErbB3” and the “protein level of ErbB3” value is listed as “decreased protein level of ErbB3”.
On to “HBx-specific siRNA: HBx-specific siRNA with a sequence as set forth in SEQ ID NO: 9 (GGTTAAAGGTCTTTGTATT; listed as DNA, chemistry not given here)”, for which, in [23], the “protein level of ErbB3” value was “decreased protein level of ErbB3” and the “protein level of HBx” value is on record as “decreases protein level of HBx”.
